Results on two compounds are retold here after US12347214B2, “Microspore culture predictive model generation and use” (PIONEER HI-BRED INTERNATIONAL, INC., priority 2019, dated 2025).

The test system of data set [1] is AtWOX2pro::CENH3-GFP activity in transgenic canola microspores. The data set can be described thus: AtWOX2pro::CENH3-GFP reporter activity in canola microspore culture with inducing agent. The following applies: with trichostatin A treatment. The class given is cell-based. An excerpt:
The methods described above for corn may also be adapted for use with other crops and for use with a reporter gene. As proof of concept, Canola microspore cells were obtained from a plant line that had been transformed with a green fluorescent protein reporter gene fused to a plant developmental gene with an effect on plant histones. While transformation was used in this case, other known gene insertion techniques such as CRISPR may be used to insert the reporter gene into the plant genome. A stable homozygous Canola line with the AtWOX2pro::CENH3-GFP fusion protein was developed. This protein attaches to plant histones, associates with plant chromocenters and can be used to determine chromosome number. GFP served as the reporter gene, although any reporter gene could also be used. This stable transgenic line was used to generate a microspore for in vitro tissue culture. Trichostatin A, a histone deacetylase inhibitor known to alter the embryogenic potential of dicot microspores was used as the inducing agent.

Data set [2] is described as follows: Dye stability in cell culture conditions. The class given is physicochemical. The following applies: supplementation at beginning of culture sufficient until end point of analysis. An excerpt: (§1) In the embodiment described herein, the fluorescent dye BODIPY 564/70, which stains both cell membranes and subcellular compartments, such as vacuoles, was used. […] BODIPY 564/70 is non-toxic to plant cells, so the plant cells continued to develop. BODIPY 564/70 is also very stable in cell culture conditions, so supplementation of the dye at the beginning of the culture was sufficient to generate informative images until the end point of the analysis. Other dyes, combinations of dyes, such as CFDA and FM4-64, and combinations of dyes with fluorescent protein markers, may also be used with the present method in order to generate different images. Options for fluorescent imaging include imaging cells that comprise fluorescent proteins, such as green (GFP), blue (EBFP, EBFP2, Azurite, mKalama1), cyan (ECFP, Cerulean, CyPet, mTurquoise2), red (dsRed, mCherry, tomato, etc.), far-red (mIFP, iBlueberry etc.) and yellow (YFP, Citrine, Venus, YPet). Plant cell stain techniques are known in the art, for example, see Ruzin, S. E. Plant Microtechnique and Microscopy. New York: Oxford University Press. ISBN 0195089561 (1999).

For the next data set, the system named is plant cells. Description: Staining of plant cells with fluorescent dye, continued cell development. The class given is cell-based. The following applies: dye added at the beginning of the culture; plant cells continued to develop.
Excerpt: as §1

On to `CC(/C=C/C(=O)NO)=C\[C@@H](C)C(=O)c1ccc(N(C)C)cc1` [trichostatin A, Trichostatin A], for which the “detection of AtWOX2pro::CENH3-GFP activity” value in data set [1] (first timepoint) is listed as “no or very low detection”; in data set [1] (second time point), “increased detection”.
With BODIPY 564/70, the “stability in cell culture conditions” value in data set [2] was “very stable”. Besides, in the data set on plant cells, the “toxicity to plant cells” value was “non-toxic”.
